Key:
Assay type in all cases: nucleic-acid assay
[1] = test system: Nucleic Acid; assay: Stabilization of human G-quadruplex F21T assessed as change in melting temperature at 1 uM by FRET assay
[2] = test system: Nucleic Acid; assay: Stabilization of DNA duplex hairpin structure assessed as change in melting temperature at 1 uM by FRET assay
[3] = test system: Nucleic Acid; assay: Stabilization of human G-quadruplex F21T assessed as change in melting temperature at 5 uM by FRET assay

Row | Structure (SMILES) | ΔTm [1] [°C] | ΔTm [2] [°C] | ΔTm [3] [°C]
1 | O=C(Nc1ccc(C2=NCCN2)cc1)c1ccc(Cl)c(C(=O)Nc2ccc(C3=NCCN3)cc2)c1 | 24.2 | 1.4 | 37.3
2 | COc1ccc2c(NCCCCCCNc3c4ccccc4nc4cc(OC)ccc34)c3ccccc3nc2c1 | 30.5 | 3.9 | 39
3 | c1ccc2c(NCCCCCCCCNc3c4ccccc4nc4ccccc34)c3ccccc3nc2c1 | 3 | 0.7 | 38.5
4 | O=C(Nc1ccc(C2=NCCN2)cc1)c1ccc(C(=O)Nc2ccc(C3=NCCN3)cc2)c(Cl)c1 | 8.4 | 1.4 | 20.4
5 | O=C(Nc1ccc(C2=NCCN2)cc1)c1ccc(C(=O)Nc2ccc(C3=NCCN3)cc2)c([N+](=O)[O-])c1 | 13.3 | 3.4 | 33.2
6 | CCN1C=C/C(=C\C=C\c2cc[n+](CC)c3ccccc23)c2ccccc21 | 11.2 | 0.6 | 36.4
7 | O=C(Nc1ccc(C2=NCCCN2)cc1)Nc1ccc(C2=NCCCN2)cc1 | 20.1 | 2.9 | 21.5
8 | Cc1ccc2c(ccc(/C=C/c3ccc(O)c4ncccc34)[n+]2C)c1 | 12.4 | 0 | 22.9
9 | CN(C)c1ccc(Nc2c3ccc(NC(=O)CCN4CCCC4)cc3nc3cc(NC(=O)CCN4CCCC4)ccc23)cc1 | 29.5 | 8.8 | –
10 | Cc1cc2nc3ccc(N(C)C)cc3[s+]c2cc1N | 20.3 | 1.8 | 35.1
11 | Cc1cc(N)c2cc(NC(=O)/C=C/c3ccccc3Cl)ccc2n1 | 7.3 | 0.4 | 19.7
12 | Cc1ccc(NC(=O)Nc2nc3ccccc3s2)cc1NC(=O)Nc1nc2ccccc2s1 | 22.7 | 0.4 | 26.6
13 | CCN(CC)CCNc1ccc2nc(C)n3c4ccc(OC)cc4c(=O)c1c23 | 4.2 | 2.6 | 15.2
14 | CN(C)c1ccc(C=c2c3ccccc3n3c2cc(-c2ccc(Cl)cc2)[n+]3C)cc1 | 1.3 | 0.3 | 22.1
15 | COc1cc(Cc2nccc3cc(OC)c(OC)cc23)c(C(C)=O)cc1OC | 8 | 0.4 | 36.7
16 | N=C(N)c1ccc(/C=C/c2ccc(C(=N)N)cc2O)cc1 | 17.3 | 3.2 | 26.3
17 | COc1ccc2cc3[n+](cc2c1OC)CCc1cc2c(cc1-3)OCO2 | 9.7 | 0.3 | 23.8
18 | COc1cc2c3c(n(C)c(=O)c2cc1OC)-c1cc2c(cc1C3=O)OCO2 | 8.1 | 0.3 | 18.8
19 | COc1ccc2c(=O)oc3c(OC)cc(CCN(C)C)c4c(=O)oc1c2c34 | 13.2 | 1.7 | 24
20 | Cc1cc(N)c2ccccc2[n+]1CCCCCCCCCC[n+]1c(C)cc(N)c2ccccc21 | 19.5 | 1.3 | 40.7
21 | CCN(CC)Cc1cc2[nH]c3c4ccc(Cl)cc4ncc3c2cc1OC | 15 | 0.7 | 25.9
22 | COc1cc2cc3c4cc(OC)c(OC)cc4cc[n+]3c(C)c2cc1OC.O=C([O-])CS(=O)(=O)O | 29.9 | 3.2 | 42.6
23 | CC(=O)N(C)c1ccc(Nc2cc(C)nc3ccc4nc[nH]c4c23)cc1 | 15.8 | 0.4 | 31.1
24 | Cc1cc(NCCCCCCCNc2cc(C)nc3cc(N)ccc23)c2ccc(N)cc2n1 | 11.8 | 0.6 | 38.7
